The values that follow come from US20260125421A1, “ANTIVIRAL COMPOUNDS” (Hoffmann-La Roche Inc., priority 2022, published 2026).

What all share (assay): biochemical
Test [1] has as its target T1, HCoV-229E 3CL^pro (Human coronavirus 229E, UniProt P0C6X1).
T1 construct: […]; made in house; host or cells: E. coli BL21 (DE3)

The target in test [2] is MERS-CoV 3CL^pro (Middle East respiratory syndrome-related coronavirus, UniProt K9N7C7).
Test [3] concerns the target T2, SARS-CoV-2 3CL^pro (Severe acute respiratory syndrome coronavirus 2, UniProt P0DTD1).
T2 construct: […]; made in house; host or cells: Escherichia coli

Test [4] concerns the target SARS-CoV 3CL^pro (Severe acute respiratory syndrome coronavirus, UniProt P0C6X7).

For orientation: IC50 means the concentration needed to halve the response being measured. Low readings indicate greater potency, high ones weaker potency.

Bounds are passed on as bounds.

Chain of MERS-CoV 3CL^pro (K9N7C7 3248-3553): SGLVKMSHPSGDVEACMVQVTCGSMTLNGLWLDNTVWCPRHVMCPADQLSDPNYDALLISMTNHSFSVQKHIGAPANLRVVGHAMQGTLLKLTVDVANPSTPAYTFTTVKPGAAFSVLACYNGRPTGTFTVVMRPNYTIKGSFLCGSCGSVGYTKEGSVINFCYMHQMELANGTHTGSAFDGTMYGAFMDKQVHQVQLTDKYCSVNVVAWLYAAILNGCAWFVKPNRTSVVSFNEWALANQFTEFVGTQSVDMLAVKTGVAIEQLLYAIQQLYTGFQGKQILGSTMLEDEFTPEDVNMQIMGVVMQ
T1 sequence (P0C6X1 2966-3267): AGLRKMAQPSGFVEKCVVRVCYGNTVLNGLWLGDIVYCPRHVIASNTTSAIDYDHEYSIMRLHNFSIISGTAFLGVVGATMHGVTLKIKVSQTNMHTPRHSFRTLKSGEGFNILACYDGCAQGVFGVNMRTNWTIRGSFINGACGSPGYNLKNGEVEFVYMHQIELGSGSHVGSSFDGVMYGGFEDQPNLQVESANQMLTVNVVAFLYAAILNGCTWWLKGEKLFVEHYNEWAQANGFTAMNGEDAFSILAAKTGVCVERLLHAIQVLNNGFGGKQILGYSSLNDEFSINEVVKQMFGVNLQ

For the compound `CCC(CC)[C@H](NC(=O)C(F)F)C(=O)N1C[C@@H]2CCC[C@@H]2[C@H]1C(=O)NN(C[C@@H]1CC(C)(C)NC1=O)C(=O)[C@H](F)Cl` [Example 7, N-[(1S)-1-[(3S,3aS,6aR)-3-[[[(2R)-2-chloro-2-fluoro-acetyl]-[[(3S)-5,5-dimethyl-2-oxo-pyrrolidin-3-yl]methyl]amino]carbamoyl]-3,3a,4,5,6,6a-hexahydro-1H-cyclopenta[c]pyrrole-2-carbonyl]-2-ethyl-butyl]-2,2-difluoro-acetamide], the IC50 in test [1] came out at 0.13 µM; in test [2], 0.162 µM; in test [3] it was 0.007 µM; in test [4], 0.009 µM.

As for `C[C@@H]1C[C@@H](CN(NC(=O)[C@@H]2[C@H]3CCC[C@H]3CN2C(=O)[C@@H](NC(=O)[C@@H]2CC2(F)F)C(C)(C)C)C(=O)[C@@H](F)Cl)C(=O)N1` [Example 30, (1S)-N-[(1S)-1-[(3S,3aS,6aR)-3-[[[(2S)-2-chloro-2-fluoro-acetyl]-[[(3S,5R)-5-methyl-2-oxo-pyrrolidin-3-yl]methyl]amino]carbamoyl]-3,3a,4,5,6,6a-hexahydro-1H-cyclopenta[c]pyrrole-2-carbonyl]-2,2-dimethyl-propyl]-2,2-difluoro-cyclopropanecarboxamide], the IC50 came to 0.066 µM in test [1], 0.091 µM in test [2], 0.008 µM in test [3] and 0.011 µM in test [4].

In the case of `CC1(C)C[C@@H](CN(NC(=O)[C@@H]2[C@H]3CCC[C@H]3CN2C(=O)[C@@H](NC(=O)C(F)F)C(C)(C)C)C(=O)[C@@H](F)Cl)C(=O)N1` [Example 6, N-[(1S)-1-[(3S,3aS,6aR)-3-[[[(2S)-2-chloro-2-fluoro-acetyl]-[[(3S)-5,5-dimethyl-2-oxo-pyrrolidin-3-yl]methyl]amino]carbamoyl]-3,3a,4,5,6,6a-hexahydro-1H-cyclopenta[c]pyrrole-2-carbonyl]-2,2-dimethyl-propyl]-2,2-difluoro-acetamide], the IC50 in test [1] was above 10 µM; in test [2], 2.95 µM; in test [3] it was 0.03 µM; in test [4], 0.041 µM.

As for `CC1(C)C[C@H](CN(NC(=O)[C@@H]2[C@H]3CCC[C@H]3CN2C(=O)[C@@H](NC(=O)[C@@H]2CC2(F)F)C(C)(C)C)C(=O)[C@H](F)Cl)C(=O)N1` [Example 5, (1S)-N-[(1S)-1-[(3S,3aS,6aR)-3-[[[(2R)-2-chloro-2-fluoro-acetyl]-[[(3R)-5,5-dimethyl-2-oxo-pyrrolidin-3-yl]methyl]amino]carbamoyl]-3,3a,4,5,6,6a-hexahydro-1H-cyclopenta[c]pyrrole-2-carbonyl]-2,2-dimethyl-propyl]-2,2-difluoro-cyclopropanecarboxamide], the IC50 in test [1] worked out at 4.1 µM; in test [2], 1.24 µM; in test [3] it was 0.081 µM; in test [4] it was 0.137 µM.

In the case of `CC(C)(C)[C@H](NC(=O)[C@@H]1CC1(F)F)C(=O)N1C[C@@H]2CCC[C@@H]2[C@H]1C(=O)NN(C[C@H]1C(=O)N[C@H]2C[C@H]21)C(=O)[C@H](F)Cl` [Example 36, (1S)-N-[(1S)-1-[(3S,3aS,6aR)-3-[[[(2R)-2-chloro-2-fluoro-acetyl]-[[(1S,4S,5S)-3-oxo-2-azabicyclo[3.1.0]hexan-4-yl]methyl]amino]carbamoyl]-3,3a,4,5,6,6a-hexahydro-1H-cyclopenta[c]pyrrole-2-carbonyl]-2,2-dimethyl-propyl]-2,2-difluoro-cyclopropanecarboxamide], the IC50 was 0.054 µM in test [1], 0.174 µM in test [2], 0.013 µM in test [3] and 0.014 µM in test [4].

Regarding `C[C@@H]1C[C@@H](CN(NC(=O)[C@@H]2[C@@H]3[C@H](CN2C(=O)[C@@H](NC(=O)[C@@H]2CC2(F)F)C(C)(C)C)C3(C)C)C(=O)[C@@H](F)Cl)C(=O)N1` [Example 34, (1S)-N-[(1S)-1-[(1R,2S,5S)-2-[[[(2S)-2-chloro-2-fluoro-acetyl]-[[(3S,5R)-5-methyl-2-oxo-pyrrolidin-3-yl]methyl]amino]carbamoyl]-6,6-dimethyl-3-azabicyclo[3.1.0]hexane-3-carbonyl]-2,2-dimethyl-propyl]-2,2-difluoro-cyclopropanecarboxamide], the IC50 in test [1] was found to be 0.037 µM; in test [2] it was 0.08 µM; in test [3], 0.008 µM; in test [4], 0.014 µM.

In the case of `CCC(CC)[C@H](NC(=O)C(F)F)C(=O)N1C[C@@H]2CCC[C@@H]2[C@H]1C(=O)NN(C[C@@H]1CC(C)(C)NC1=O)C(=O)[C@@H](F)Cl` [Example 12, N-[(1S)-1-[(3S,3aS,6aR)-3-[[[(2S)-2-chloro-2-fluoro-acetyl]-[[(3S)-5,5-dimethyl-2-oxo-pyrrolidin-3-yl]methyl]amino]carbamoyl]-3,3a,4,5,6,6a-hexahydro-1H-cyclopenta[c]pyrrole-2-carbonyl]-2-ethyl-butyl]-2,2-difluoro-acetamide], the IC50 in test [1] was 1.24 µM; in test [2] it was 0.555 µM; in test [3], 0.009 µM; in test [4], 0.013 µM.

Regarding `CCC(CC)[C@H](NC(=O)C(F)F)C(=O)N1C[C@@H]2CCC[C@@H]2[C@H]1C(=O)NN(C[C@H]1CC(C)(C)NC1=O)C(=O)[C@H](F)Cl` [Example 8], the IC50 in test [1] was 6.71 µM; in test [2] it was 3.02 µM; in test [3] it was 0.129 µM; in test [4] it was 0.256 µM.

Regarding `CC(C)(C)[C@H](NC(=O)[C@@H]1CC1(F)F)C(=O)N1C[C@@H]2CCC[C@@H]2[C@H]1C(=O)NN(C[C@H]1CC2(CC2)NC1=O)C(=O)[C@H](F)Cl` [Example 26, (1S)-N-[(1S)-1-[(3S,3aS,6aR)-3-[[[(2R)-2-chloro-2-fluoro-acetyl]-[[(6R)-5-oxo-4-azaspiro[2.4]heptan-6-yl]methyl]amino]carbamoyl]-3,3a,4,5,6,6a-hexahydro-1H-cyclopenta[c]pyrrole-2-carbonyl]-2,2-dimethyl-propyl]-2,2-difluoro-cyclopropanecarboxamide], the IC50 in test [1] was found to be 0.045 µM; in test [2], 0.111 µM; in test [3], 0.012 µM; in test [4], 0.011 µM.

Regarding `CC1(C)C[C@@H](CN(NC(=O)[C@@H]2[C@H]3CCC[C@H]3CN2C(=O)[C@@H](NC(=O)[C@H](F)Cl)C(C)(C)C)C(=O)[C@@H](F)Cl)C(=O)N1` [Example 16], the IC50 in test [1] is above 10 µM; in test [2], 6.16 µM; in test [3] it was 0.022 µM; in test [4], 0.033 µM.

As to `C[C@H]1C[C@H](CN(NC(=O)[C@@H]2[C@H]3CCC[C@H]3CN2C(=O)[C@@H](NC(=O)[C@@H]2CC2(F)F)C(C)(C)C)C(=O)[C@H](F)Cl)C(=O)N1` [Example 28, (1S)-N-[(1S)-1-[(3S,3aS,6aR)-3-[[[(2R)-2-chloro-2-fluoro-acetyl]-[[(3R,5S)-5-methyl-2-oxo-pyrrolidin-3-yl]methyl]amino]carbamoyl]-3,3a,4,5,6,6a-hexahydro-1H-cyclopenta[c]pyrrole-2-carbonyl]-2,2-dimethyl-propyl]-2,2-difluoro-cyclopropanecarboxamide], the IC50 was determined as 0.492 µM in test [1], 1.16 µM in test [2], 0.03 µM in test [3] and 0.074 µM in test [4].
